Data: patent publication US11738095B2, “Cyanine-containing compounds for cancer imaging and treatment” (Emory University, priority 2007, dated 2023)
Like-named read-outs stand apart in the source and are kept apart here.

Key:
[1] = FDA approved dye; cited from earlier work
[2] = Experimental: Mice were injected with 20 μg/Kg of IR783 and IR780 (which was 100× of the imaging dose which was 0.2 μg/Kg) and results were compared for a 28 day period. […] Zero grams means the mouse died. ICG is a FDA approved dye used for several diagnostic purposes. ICG is considered to be nontoxic. ICG is used here as a measure of the toxicity of the tested compounds.
Toxicity test of dye based on body weight gained during the treatment period from 0 to 14 days.

[3] = tested on: human cancer cells: ARCaPM, C4-2, PC-3, HepG2, MCF-7, RCC, T-24, HeLa, K562, H358; assay: uptake of IR780 by human cancer cells in culture (FIG. 10); format: cell-based; conditions: 20 uM, 30 minutes, confocal microscope
Experimental: The uptake of IR780 by human cancer cells in culture was also studied. […] All the cells were cultured with 20 uM IR-780 in basal media (T-medium with 5% fetal bovine serum and 1% antibiotics) for 30 minutes and were imaged under confocal microscope.

[4] = tail vein injection, data not shown
[5] = tested on: normal prostate fibroblasts (NPF), normal prostate epithelial cells (NPE), marrow stromal cells BMC; assay: uptake of IR780 by normal human cells in culture (FIG. 10); format: cell-based
ARCaPM cells = assay: confocal imaging of IR780 uptake and localization in ARCaPM cells (FIG. 11, 12); format: cell-based, human
Experimental: In FIG. 11, ARCaPM Cells were plated on live-cell imaging chambers from World Precision Instrument (Sarasota, Fla.) overnight. Cells were treated with IR-780 with different concentrations and were imaged using a Perkin-Elmer Ultraview ERS spinning disc confocal microscope. This system was mounted on a Zeiss Axiovert 200 m inverted microscope equipped with a 37° C. stage warmer, incubator, and CO2 perfusion. A x63 or x100 Zeiss oil objective (numerical aperture, 1.4) was used for all images and a Z-stack was created using the attached piezoelectric z-stepper motor. The 633 nm laser line of an […] (set at 60% power) was used to excite the IR-780 organic dye. For each comparison, the exposure time and laser intensity was kept identical for accurate intensity measurement. Pixel intensity was quantitated using Metamorph 6.1 (Universal Imaging, Downingtown, Pa.) and the mean pixel intensity was generated as grey level using the Region Statistics feature on the software.

[6] = tested on: subcutaneous HepG2, C4-2, H358, HeLa, MCF-7 and ARCaPM tumors; assay: imaging of subcutaneous human tumors in mice with IR780 (FIG. 13); format: in vivo, mouse; conditions: 5 n mol tail vein, tumors 0.5-1.0 cm
Experimental: Subcutaneous HepG2 (human liver cancer), C4-2 (human prostate androgen-independent and metastatic cancer), H358 (human lung cancer), HeLa (human cervical cancer), MCF-7 (human breast cancer) and ARCaPM (a highly bone and soft tissue metastatic human prostate cancer) cancers were established in live mice prior to the administration of IR-780. The tumor xenografts were measured about 0.5-1.0 cm in diameter at the time of imaging. 5 n mol of IR-780 were given to mice through tail vein and imaged using Kodak multimodal-imaging system. The distribution of IR-780 in tumor tissues was conformed by imaging of frozen sections under confocal microscope. The histopathology of the tumor was confirmed by H/E staining of the frozen tissue specimens and DAPI stained cell nuclei.

[7] = tested on: human ARCaPM prostate cancer cells; assay: imaging of MHI-148 tagged ARCaPM cells in test tubes (FIG. 2A); format: cell-based; conditions: 1, 10 and 100 μM, incubation 2 hours, excitation 720 nm, emission 850 nm
Experimental: (§1) After incubation for 2 hours, cells were washed 3 times with PBS, harvested by centrifuge and imaged. One million of the MHI-148 tagged ARCaPM cells with different concentrations were injected subcutaneously in the back of the mouse and imaged at the same time (B). […] All the in vitro and in vivo imaging was performed using a Kodak multimodal-imaging system IS2000MM (Kodak) equipped with an excitation bandpass filter at 720 nm and an emission at 850 nm. Exposure time was 30 s per image. The images were analyzed using the imaging station IS2000MM software (Kodak 1D Image Analysis Software; Kodak).

[8] = tested on: spontaneously developed prostate tumor; assay: imaging of spontaneous prostate tumor in TRAMP transgenic mouse with MHI-148 (FIG. 8); format: in vivo
Excerpt: 10 nmol of MHI-148 was given to a 46 week-old TRAMP transgenic mouse with spontaneously developed prostate tumor mass and imaged after 4 hrs after MHI-148 injection (panel A). […] Surgical dissection of this mouse confirmed […] was present (panel C).

[9] = distribution of MHI-148 in normal mice, in vivo and ex vivo organ imaging (FIG. 3); parameters: species or system mouse; conditions: for fluorescence of isolated liver, kidney and testis: Xenogen
Experimental: MHI-148 (5 nmol) was given by tail vein injection and the MHI-148 distribution followed at 2, 6, and 96 hrs. At the end of this study, mice were sacrificed at 6 or 80 hrs after MHI-148 tail vein administration. […] The isolated tissues and organs excised from mice at 6 hours and 80 hours after receiving 5 nmol MHI-148 were also imaged by the Xenogen machine and the signals were compared by fluorescence intensity.

Cancer cell = assay: CellTiter 96 Aqueous One Solution Cell Proliferation Assay (FIG. 7); format: cell-based; conditions: different concentrations, 48 hrs, T-medium 5% FBS
Experimental: Cancer cell were plated in 96-well plates in T-medium containing 5% FBS with different concentrations of MHI-148 for 48 hrs of incubation. Cell numbers were measured using CellTiter 96 Aqueous One Solution Cell Proliferation Assay (Promega, Madison, Wis.).

[10] = tested on: normal prostate epithelial cells NPE and normal human skin epithelial cells HaCaT; assay: uptake of MHI-148 by normal epithelial cells in culture (FIG. 1); format: cell-based; conditions: 100 μM, two hours
Experimental: (§2) All the cells were cultured with 100 μM MHI-148 in basal media (T-medium with 5% fetal bovine serum and 1% antibiotics) for two hours and were imaged under an inverted microscope. These conditions are the usual conditions used here unless otherwise specified.

C4-2 tumor = assay: imaging of live and necrotic intratibial C4-2 tumors with MHI-148 (FIG. 6); format: in vivo, mouse; conditions: 10 nmol tail vein, imaged after 48 hrs
Experimental: C4-2 cells were injected into both sides of tibia of one mouse. When one tumor was developed to size with visible necrosis and the other tumor still in the fast growing phase, 10 nmol MHI-148 was given through tail vein. After 48 hrs, the mouse was imaged. […] The histopathology of the tumors was confirmed by the H/E stain (see upper right panel).

[11] = tested on: spontaneous prostate tumor in a TRAMP mouse; assay: imaging of spontaneous TRAMP prostate tumor, fresh and after fixation (FIG. 16B, C); format: in vivo; conditions: TRAMP mouse spontaneous prostate tumors, FIG. 16 legend
Experimental: NIR imaging studies were performed to assess pharmacokinetics of the IR783 in vivo. […] This mouse was injected i.p with 0.2 μg/kg IR783 at 0 hrs. […] The dye retention in formalin fixed tissues can be as long as several weeks (data not shown).

[12] = photostability of MHI-148; format: physicochemical
[13] = tested on: human ARCaPM prostate cancer cells; assay: imaging of MHI-148 tagged ARCaPM cells injected into mice (FIG. 2B, C); format: in vivo, mouse; conditions: one million ARCaPM cells tagged with 10 uM MHI-148
Experimental: as §1

[14] = tested on: human cancer cells: LNCaP, ARCaPE, ARCaPM, C4-2, PC-3, HepG2, MG63, MCF-7, RCC, T-24, HeLa, K562, H358; assay: uptake of MHI-148 by human cancer cells in culture (FIG. 1); format: cell-based; conditions: 100 μM, two hours, T-medium with 5% fetal bovine serum, inverted microscope
Experimental: as §2

[15] = tested on: subcutaneous ARCaPM, intratibial C4-2, H358 and K562 tumors; assay: imaging of pre-established tumors in live mice with MHI-148 (FIG. 4); format: in vivo, mouse
Experimental: Subcutaneous ARCaPM and intratibial C4-2 tumors were established in live mice prior to the administration of MHI-148. The tumors measured about 0.5-1.0 cm in diameter at the time of imaging. 10 nmol of MHI-148 was given to mice through tail vein and imaged using Kodak multimodal-imaging system. Human lung (H358) and leukemia (K562) cancer cells were injected subcutaneously into one side of the shoulder of mice. When the tumors were about 1-2 cm in diameter, 10 nmol MHI-148 was given through tail vein and tumor images were taken at 96 hrs after MHI-148 administration.

[16] = tested on: normal prostate fibroblasts, marrow stromal cells BMC, normal vascular endothelial cells VEC, mouse macrophage RAW cells; assay: uptake of MHI-148 by normal human or mouse cells in culture (FIG. 1); format: cell-based; conditions: 100 μM, two hours
Experimental: as §2

[17] = tested on: human ARCaPE, ARCaPM, and C4-2 tumors; assay: detection of multiple tumors in one mouse with MHI-148 (FIG. 5); format: in vivo; conditions: 10 nmol tail vein, 96 hrs
Experimental: A mouse had 5 pre-established human ARCaPE, ARCaPM, and C4-2 tumors in the back by subcutaneous injection of tumor cells. Four tumors were measured with 0.2-1.0 cm in diameter and one tumor was not detectable by visualization at the time of NHI-148 administration. […] Visual and palpation techniques could only detect four tumors, while MHI-148 (10 nmol), after tail vein administration, clearly gained access to all tumors in the live mouse and allowed tumor images to be detected in all five tumors.

[18] = dose 1X (imaging dose 0.2 μg/Kg), 0 day

CC1(C)C(/C=C/C=C/C=C/C=C2\N(CCCCS(=O)(=O)[O-])c3ccc4ccccc4c3C2(C)C)=[N+](CCCCS(=O)(=O)[O-])c2ccc3ccccc3c21.[Na+] [ICG, reference compound]
toxicity (general reputation) [1]: nontoxic
body weight [2, 18]: 20.43 g
body weight ([2]; dose 1X, 1 day): 20.49 g
body weight ([2]; dose 1X, 2 day): 20.51 g
body weight ([2]; dose 1X, 3 day): 21.01 g
body weight ([2]; dose 1X, 4 day): 21.43 g
body weight ([2]; dose 1X, 5 day): 22.00 g
body weight ([2]; dose 1X, 6 day): 22.34 g
body weight ([2]; dose 1X, 7 day): 22.96 g
body weight ([2]; dose 1X, 14 day): 23.87 g
body weight ([2]; dose 1X, 28 day): 25.00 g

CCCN1/C(=C/C=C2\CCCC(/C=C/C3=[N+](CCC)c4ccccc4C3(C)C)=C2Cl)C(C)(C)c2ccccc21.[I-] [IR780]
uptake of IR-780 [3]: significant uptake
uptake by normal mouse tissues [4]: failed to uptake IR780
uptake of IR-780 ([5]; 20 uM, 30 minutes, confocal microscope): very low uptake
uptake by normal prostate epithelial cells ([5]; data not shown): did not take up the dye
subcellular localization (ARCaPM cells; co-stained with mitochondrial tracker or lysosome tracker): co-localized with mitochondrial, lysomomal and cytoplasmic compartments
effect of BSP (organic anion transporter inhibitor) on uptake (ARCaPM cells; data not shown): blocked by BSP
dependence of uptake (ARCaPM cells; different concentrations, live-cell confocal imaging): time- and concentration-dependent uptake
tumor images [6]: clear tumor images can be detected
body weight [2, 18]: 19.00 g
body weight ([2]; dose 1X, 1 day): 19.02 g
body weight ([2]; dose 1X, 2 day): 19.71 g
body weight ([2]; dose 1X, 3 day): 20.01 g
body weight ([2]; dose 1X, 4 day): 20.32 g
body weight ([2]; dose 1X, 5 day): 20.56 g
body weight ([2]; dose 1X, 6 day): 20.97 g
body weight ([2]; dose 1X, 7 day): 21.81 g
body weight ([2]; dose 1X, 14 day): 23.56 g
body weight ([2]; dose 1X, 28 day): 24.44 g
body weight ([2]; dose 10X, 0 day): 20.71 g
body weight ([2]; dose 10X, 1 day): 20.69 g
body weight ([2]; dose 10X, 2 day): 20.70 g
body weight ([2]; dose 10X, 3 day): 21.03 g
body weight ([2]; dose 10X, 4 day): 21.24 g
body weight ([2]; dose 10X, 5 day): 21.89 g
body weight ([2]; dose 10X, 6 day): 22.00 g
body weight ([2]; dose 10X, 7 day): 22.56 g
body weight ([2]; dose 10X, 14 day): 24.00 g
body weight ([2]; dose 10X, 28 day): 24.56 g
body weight ([2]; dose 100X (20 μg/Kg), 0 day): 20.14 g
body weight ([2]; dose 100X, 1 day, zero grams means the mouse died): 0 g
body weight ([2]; dose 100X, 2 day, zero grams means the mouse died): 0 g
body weight ([2]; dose 100X, 3 day, zero grams means the mouse died): 0 g
body weight ([2]; dose 100X, 4 day, zero grams means the mouse died): 0 g
body weight ([2]; dose 100X, 5 day, zero grams means the mouse died): 0 g
body weight ([2]; dose 100X, 6 day, zero grams means the mouse died): 0 g
body weight ([2]; dose 100X, 7 day, zero grams means the mouse died): 0 g
body weight ([2]; dose 100X, 14 day, zero grams means the mouse died): 0 g
body weight ([2]; dose 100X, 28 day, zero grams means the mouse died): 0 g

CC1(C)C(/C=C/C2=C(Cl)C(=C/C=C3/N(CCCCCC(=O)O)c4ccccc4C3(C)C)/CCC2)=[N+](CCCCCC(=O)O)c2ccccc21.[Br-] [MHI-148]
images of MHI-148 tagged ARCaPM cells in test tubes [7]: intense images can be readily detected
imaging of prostate tumor mass ([8]; 46 week-old TRAMP mouse, 10 nmol, 4 hrs after injection): showed clear tumor in situ
signal in mouse without tumor ([8]; young age TRAMP mouse which harbored no tumor): no signal was detected
fluorescence of isolated liver, kidney and testis ([9]; 5 nmol tail vein, 6 hrs post administration): positive
fluorescence of isolated liver, kidney and testis ([9]; 5 nmol tail vein, 80 hrs post administration): void of any fluorescence signaling
time to clearance from normal organs (liver, kidney, testis, seminal vesicles) ([9]; live animals): ≤ 96 h
MHI-148 uptake by the liver and kidney ([9]; normal mice, 5 nmol tail vein, 2 and 6 hrs): can be detected
MHI-148 in live mice and dissected mouse tissues ([9]; normal mice, 5 nmol tail vein, by 96 hrs): no detectable MHI-148
cancer cell growth (cell numbers) (Cancer cell): inhibition of cancer growth in vitro
uptake of MHI-148 [10]: low uptake
uptake by live C4-2 tumor (right tibia) (C4-2 tumor): shown to uptake MHI-148
uptake by necrotic or dead tumor cells (left side) (C4-2 tumor): failed to uptake MHI-148
stability of dye in formalin fixation [11]: stable in formalin fixation for weeks
photostability [12]: relatively photostable
image of tagged cells injected into mouse tibia [13]: can be seen in the intratibial space
uptake of MHI-148 [14]: significant uptake
tumor images ([15]; 10 nmol tail vein, H358 and K562 images at 96 hrs): Clear tumor associated images are seen
fate in tumors versus host ([15]; 96 hrs after administration): accumulated in tumors
uptake of MHI-148 [16]: failed to yield any time- or concentration-dependent uptake
size of smallest tumor imaged [17]: < 2 mm^3
tumors imaged ([17]; mouse with 5 tumors): All five tumors were imaged
